Test results taken from patent US8916540B2, “Antibiotic compositions and related screening methods” (Academia Sinica, priority 2008, dated 2014).
Values after ≈ are worked out from the molar mass of the structure shown. Where two headings read alike, the source gives them in different places.

Tests used:
Bacillus subtilis = experiment: Minimal inhibitory concentration (MIC) determination; type: cell-based; conditions: Bacillus subtilis
Protocol: (§1) The minimal inhibitory concentration (MIC) of tested compounds was determined following the NCCLS standard. The experiments were conducted in 96-well microtiter plates using two-fold dilutions in Muller-Hilton broth with (Streptococcus pneumonia) or without blood (Bacillus subtilis, Enterococcus faecalis, Staphylococcus aureus). Exponentially growing cells at 5×10^5 cells/ml were incubated with test compounds at various concentrations.

Enterococcus faecalis = experiment: as above; type: cell-based; conditions: Enterococcus faecalis
Protocol: as §1

Staphylococcus aureus = experiment: as above; type: cell-based; conditions: Staphylococcus aureus
Protocol: as §1

Streptococcus pneumoniae = experiment: as above; type: cell-based; conditions: Streptococcus pneumoniae
Protocol: as §1

H. pylori PBP1a = molecular target: T1, H. pylori PBP1a (Helicobacter pylori, UniProt O25319, /I22V/I24V/I79V/M17V/S417T/V16I, form not given); type: binding; conditions: read-out: IC50 (fluorescence anisotropy assay, displacement of F-Moe); 100 nM F-Moe, 10 μg/ml H. pylori PBP1a, 10 mM Tris pH 8.0, 100 mM NaCl
T1 sequence (O25319 1-659 V16I/M17V/I22V/I24V/G44S/I79V/I101V/F125L/G242S/E323D/D336E/E406V/S417T/D508E): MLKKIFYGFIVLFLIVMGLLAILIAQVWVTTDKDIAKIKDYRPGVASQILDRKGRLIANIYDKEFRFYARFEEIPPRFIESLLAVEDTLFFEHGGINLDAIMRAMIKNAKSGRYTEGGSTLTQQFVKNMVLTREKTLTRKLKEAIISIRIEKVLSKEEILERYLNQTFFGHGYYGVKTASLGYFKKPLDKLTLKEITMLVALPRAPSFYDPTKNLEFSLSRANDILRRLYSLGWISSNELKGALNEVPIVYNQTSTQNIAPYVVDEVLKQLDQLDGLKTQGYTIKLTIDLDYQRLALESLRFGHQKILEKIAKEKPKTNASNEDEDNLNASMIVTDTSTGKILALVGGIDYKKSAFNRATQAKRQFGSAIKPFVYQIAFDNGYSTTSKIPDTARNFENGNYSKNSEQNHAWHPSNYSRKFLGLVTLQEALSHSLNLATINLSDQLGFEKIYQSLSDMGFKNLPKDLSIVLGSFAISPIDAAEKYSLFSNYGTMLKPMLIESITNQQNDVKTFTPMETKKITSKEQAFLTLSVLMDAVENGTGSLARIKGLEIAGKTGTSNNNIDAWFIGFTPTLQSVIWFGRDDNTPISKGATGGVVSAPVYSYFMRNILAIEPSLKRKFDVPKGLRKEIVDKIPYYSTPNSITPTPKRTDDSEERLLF
Protocol: Fluorescence anisotropy measurements were carried out in triplicates in the wells of 384-well plates using a laser fluorimetry equipped with a 488 nm laser (IsoCyte, Blueshift Biotech, Inc., Sunnyvale, Calif., USA). Various buffers, salts, pH values, and divalent cations (Ca^++, Mg^++, Co^++) were optimized for fluorescence anisotropy measurements. […] The scanning focus was above the plate bottom to avoid detection interferences. Data analysis was performed with the proprietary software, BlueImage (Blueshift Biotech Inc). Fluorescence anisotropy values (A) were calculated using the equation: A=(/∥−G*/⊥)/(/∥+2G*/⊥), where /∥ is the fluorescence intensity of emitted light parallel to excitation, /⊥ is the fluorescence intensity of emitted light perpendicular to excitation, and G is the […] that corrects for instrument bias. The G factor is experimentally determined for each run using the probe-only well as the basal an isotropy.
For the development of an assay for inhibitor screening, F-Moe was pre-incubated with H. pylori PBP1a and then competed with unlabeled Moe A at various concentrations.
For displacement assay, the initial condition contained 40 μl of 100 nM F-Moe, 10 μg/ml H. pylori PBP1a in 10 mM Tris, pH 8.0, 100 mM NaCl. Aliquots of compound stock solution were added and the anisotropy was monitored after 5 minutes of equilibration. The data from the displacement assay was used to calculate the inhibition constant (KI) and IC50 value of an inhibitor using the complete competitive binding model
[formula] The KI value was determined by plotting the total inhibitor concentration (C) versus the molar ratio of bound/free F-Moe and fitting the resulting curve to [Eq. 2], C=[(KI/KD*X)+1][RT−(LST*X)/(X+1)−KD*X [Eq. 2] […] The reported value is the average of four different runs.
For IC50 determination, the fraction of bound fluorescent probe is plotted versus the log value of the competitor concentration (C).

[1] = B. subtilis ATCC23857, Muller-Hilton broth, 18 h to 24 h, 37° C., read-out: MIC B. subtilis (ATCC23857)
[2] = E. faecalis ATCC29212, Muller-Hilton broth, 18 h to 24 h, 37° C., read-out: MIC E. faecalis (ATCC29212)
[3] = S. aureus ATCC29213, Muller-Hilton broth, 18 h to 24 h, 37° C., read-out: MIC S. aureus (ATCC29213)
[4] = S. pneumoniae ATCC49619, Muller-Hilton broth with blood, 18 h to 24 h, 37° C., read-out: MIC S. pneumoniae (ATCC49619)

SMILES	MIC (Bacillus subtilis; ATCC23857, read-out: MIC B. subtilis (ATCC23857)) [µM]	MIC (Enterococcus faecalis; ATCC29212, read-out: MIC E. faecalis (ATCC29212)) [µM]	MIC (Staphylococcus aureus; ATCC29213, read-out: MIC S. aureus (ATCC29213)) [µM]	MIC (Streptococcus pneumoniae; ATCC49619, read-out: MIC S. pneumoniae (ATCC49619)) [µM]	IC50 (H. pylori PBP1a) [µM]	MIC (Bacillus subtilis; [1]) [µM]	MIC (Enterococcus faecalis; [2]) [µM]	MIC (Staphylococcus aureus; [3]) [µM]	MIC (Streptococcus pneumoniae; [4]) [µM]
C=C(CC=C(C)CCC=C(C)C)CCC(C)(C)C=CCCC(C)=CCOC(COP(=O)(O)OC1OC(C(N)=O)C(C)(O)C(OC(N)=O)C1OC1OC(COC2OC(CO)C(O)C(O)C2O)C(OC2OC(C)C(OC3OC(c4nc(C(=O)CCC(=O)O)nn4-c4ccc([N+](=O)[O-])c(C(=O)NCCNC(=O)CCCCCCC(=O)NCCNC(=O)c5cc(-n6nc(C(=O)CCC(=O)O)nc6C6OC(OC7C(C)OC(OC8C(COC9OC(CO)C(O)C(O)C9O)OC(OC9C(OP(=O)(O)OCC(OCC=C(C)CCC=CC(C)(C)CCC(=C)CC=C(C)CCC=C(C)C)C(=O)O)OC(C(N)=O)C(C)(O)C9OC(N)=O)C(NC(C)=O)C8O)C(NC(C)=O)C7O)C(O)C(O)C6O)ccc5[N+](=O)[O-])c4)C(O)C(O)C3O)C(O)C2NC(C)=O)C(O)C1NC(C)=O)C(=O)O (stereo not drawn) [Compound 4]	1.25 (≈ 4.72 µg/mL)	5 (≈ 18.9 µg/mL)	0.625 (≈ 2.36 µg/mL)	20 (≈ 75.5 µg/mL)	0.92	–	–	–	–
C/C(=C\c1ccc(C(=O)O)cc1)c1ccc2c(c1)C(C)(C)CCC2(C)C [Compound 8, (E)-4-(2-(5,5,8,8,-tetramethyl-5,6,7,8-tetrahydronaphthalen-2-yl)prop-1-enyl)benzoic acid]	–	–	–	–	9.3	4 (≈ 1.39 µg/mL)	> 4	> 4	> 4
O=C1OC(c2ccc(Br)cc2)=C/C1=C/c1ccc([N+](=O)[O-])o1 [Compound 6, (Z)-5-(4-bromophenyl)-3-((5-nitrofuran-2-yl)methylene)furan-2(3H)-one]	–	–	–	–	34	0.25 (≈ 0.0905 µg/mL)	0.25 (≈ 0.0905 µg/mL)	1 (≈ 0.362 µg/mL)	4 (≈ 1.45 µg/mL)
O=C1/C(=N\Nc2nccs2)C(c2ccccc2)=NN1c1ccccc1 [Compound 7]	–	–	–	–	3.7	0.25 (≈ 0.0869 µg/mL)	1 (≈ 0.347 µg/mL)	4 (≈ 1.39 µg/mL)	–
C=C(CC=C(C)CCC=C(C)C)CCC(C)(C)C=CCCC(C)=CCOC(COP(=O)(O)OC1OC(C(N)=O)C(C)(O)C(OC(N)=O)C1OC1OC(COC2OC(CO)C(O)C(O)C2O)C(OC2OC(C)C(OC3OC(c4nc(C(=O)CCC(=O)O)nn4-c4ccc([N+](=O)[O-])c(C(=O)NCCN)c4)C(O)C(O)C3O)C(O)C2NC(C)=O)C(O)C1NC(C)=O)C(=O)O (stereo not drawn) [Compound 2]	–	–	–	–	2.1	2.5 (≈ 4.54 µg/mL)	10 (≈ 18.2 µg/mL)	1.25 (≈ 2.27 µg/mL)	20 (≈ 36.4 µg/mL)
